Converted amounts (≈) assume the structure as drawn.
Experiments:
Type in all cases: functional
Staphylococcus aureus [1] = experiment: microbe, parasite or virus in culture; settings: ATCC 6538P
Description: Antibacterial activity against Staphylococcus aureus ATCC 6538p by agar-dilution method

Bacillus subtilis = experiment: microbe, parasite or virus in culture; settings: ATCC 6633
Description: Antibacterial activity against Bacillus subtilis ATCC 6633 by agar-dilution method

[2] = test system: Staphylococcus epidermidis; experiment: microbe, parasite or virus in culture; settings: ATCC 12228
Description: Antibacterial activity against Staphylococcus epidermidis ATCC 12228 by agar-dilution method

Escherichia coli = experiment: microbe, parasite or virus in culture; settings: ATCC 8739
Description: Antibacterial activity against Escherichia coli ATCC 8739 by agar-dilution method

Klebsiella pneumoniae = experiment: microbe, parasite or virus in culture; settings: ATCC 10031
Description: Antibacterial activity against Klebsiella pneumoniae ATCC 10031 by agar-dilution method

Pseudomonas aeruginosa = experiment: microbe, parasite or virus in culture; settings: ATCC 9027
Description: Antibacterial activity against Pseudomonas aeruginosa ATCC 9027 by agar-dilution method

Staphylococcus aureus [3] = experiment: Antibacterial activity against methicillin-resistant Staphylococcus aureus 1 by agar-dilution method
Staphylococcus aureus [4] = experiment: Antibacterial activity against methicillin-resistant Staphylococcus aureus 2 by agar-dilution method

| Compound | MIC (Staphylococcus aureus [1]) | MIC (Bacillus subtilis) | MIC [2] | MIC (Escherichia coli) | MIC (Klebsiella pneumoniae) | MIC (Pseudomonas aeruginosa) | MIC (Staphylococcus aureus [3]) | MIC (Staphylococcus aureus [4]) |
| --- | --- | --- | --- | --- | --- | --- | --- | --- |
| O=C(CN1CCN(c2cc3c(cc2F)c(=O)c(C(=O)O)cn3C2CC2)CC1)c1ccc(Cl)cc1 | 0.39 µg/mL (≈ 0.806 µM) | 0.049 µg/mL (≈ 0.101 µM) | 0.195 µg/mL (≈ 0.403 µM) | 0.025 µg/mL (≈ 0.0517 µM) | 0.013 µg/mL (≈ 0.0269 µM) | 1.56 µg/mL (≈ 3.22 µM) | 0.39 µg/mL (≈ 0.806 µM) | 0.39 µg/mL (≈ 0.806 µM) |
| CCn1cc(C(=O)O)c(=O)c2cc(F)c(N3CCN(C/C(=N\OC)c4ccc(F)cc4)CC3)nc21 | 12.5 µg/mL (≈ 25.7 µM) | 6.25 µg/mL (≈ 12.9 µM) | 6.25 µg/mL (≈ 12.9 µM) | 6.25 µg/mL (≈ 12.9 µM) | 1.56 µg/mL (≈ 3.21 µM) | 100 µg/mL (≈ 206 µM) | – | – |
| CCn1cc(C(=O)O)c(=O)c2cc(F)c(N3CCN(C/C(=N\OC)c4ccccc4)CC3)nc21 | 25 µg/mL (≈ 53.5 µM) | 12.5 µg/mL (≈ 26.7 µM) | 25 µg/mL (≈ 53.5 µM) | 12.5 µg/mL (≈ 26.7 µM) | 12.5 µg/mL (≈ 26.7 µM) | > 100 µg/mL | – | – |
| CCn1cc(C(=O)O)c(=O)c2cc(F)c(N3CCN(C/C(=N\OC)c4ccc(Cl)cc4Cl)CC3)nc21 | 25 µg/mL (≈ 46.6 µM) | 12.5 µg/mL (≈ 23.3 µM) | 25 µg/mL (≈ 46.6 µM) | 12.5 µg/mL (≈ 23.3 µM) | 6.25 µg/mL (≈ 11.7 µM) | 50 µg/mL (≈ 93.2 µM) | – | – |
| CCn1cc(C(=O)O)c(=O)c2cc(F)c(N3CCN(C/C(=N\OC)c4ccccc4)CC3)cc21 | 25 µg/mL (≈ 53.6 µM) | 6.25 µg/mL (≈ 13.4 µM) | 25 µg/mL (≈ 53.6 µM) | 12.5 µg/mL (≈ 26.8 µM) | 12.5 µg/mL (≈ 26.8 µM) | > 100 µg/mL | – | – |
| CCn1cc(C(=O)O)c(=O)c2cc(F)c(N3CCN(C/C(=N\OC)c4ccc(F)cc4F)CC3)nc21 | 25 µg/mL (≈ 49.7 µM) | 1.56 µg/mL (≈ 3.1 µM) | 25 µg/mL (≈ 49.7 µM) | 50 µg/mL (≈ 99.3 µM) | 25 µg/mL (≈ 49.7 µM) | > 100 µg/mL | – | – |
| O=C(CN1CCN(c2cc3c(cc2F)c(=O)c(C(=O)O)cn3C2CC2)CC1)c1ccccc1Cl | 0.39 µg/mL (≈ 0.806 µM) | 0.049 µg/mL (≈ 0.101 µM) | 0.195 µg/mL (≈ 0.403 µM) | 0.098 µg/mL (≈ 0.203 µM) | 0.025 µg/mL (≈ 0.0517 µM) | 6.25 µg/mL (≈ 12.9 µM) | 0.39 µg/mL (≈ 0.806 µM) | 0.39 µg/mL (≈ 0.806 µM) |
| CCn1cc(C(=O)O)c(=O)c2cc(F)c(N3CCN(C/C(=N\OC)c4ccc(F)cc4F)CC3)cc21 | 12.5 µg/mL (≈ 24.9 µM) | 1.56 µg/mL (≈ 3.1 µM) | 12.5 µg/mL (≈ 24.9 µM) | 25 µg/mL (≈ 49.8 µM) | 12.5 µg/mL (≈ 24.9 µM) | > 100 µg/mL | – | – |
| CCn1cc(C(=O)O)c(=O)c2cc(F)c(N3CCN(C/C(=N\OC)c4ccc(F)cc4)CC3)cc21 | 6.25 µg/mL (≈ 12.9 µM) | 3.13 µg/mL (≈ 6.46 µM) | 1.56 µg/mL (≈ 3.22 µM) | 3.13 µg/mL (≈ 6.46 µM) | 0.78 µg/mL (≈ 1.61 µM) | 100 µg/mL (≈ 206 µM) | – | – |
| O=C(O)c1cn(C2CC2)c2cc(N3CCN(C/C(=N\O)c4ccc(Cl)cc4)CC3)c(F)cc2c1=O | 0.39 µg/mL (≈ 0.782 µM) | 0.78 µg/mL (≈ 1.56 µM) | 0.195 µg/mL (≈ 0.391 µM) | 0.78 µg/mL (≈ 1.56 µM) | 0.049 µg/mL (≈ 0.0982 µM) | 100 µg/mL (≈ 200 µM) | 0.195 µg/mL (≈ 0.391 µM) | 0.098 µg/mL (≈ 0.196 µM) |
| CCn1cc(C(=O)O)c(=O)c2cc(F)c(N3CCN(C/C(=N\OC)c4ccc(Cl)cc4Cl)CC3)cc21 | 12.5 µg/mL (≈ 23.3 µM) | 12.5 µg/mL (≈ 23.3 µM) | 12.5 µg/mL (≈ 23.3 µM) | 12.5 µg/mL (≈ 23.3 µM) | 6.25 µg/mL (≈ 11.7 µM) | > 100 µg/mL | – | – |
| CO/N=C(\CN1CCN(c2cc3c(cc2F)c(=O)c(C(=O)O)cn3C2CC2)CC1)c1ccc(Cl)cc1Cl | 0.39 µg/mL (≈ 0.712 µM) | 0.025 µg/mL (≈ 0.0457 µM) | 0.39 µg/mL (≈ 0.712 µM) | 0.025 µg/mL (≈ 0.0457 µM) | 0.012 µg/mL (≈ 0.0219 µM) | 1.56 µg/mL (≈ 2.85 µM) | 0.39 µg/mL (≈ 0.712 µM) | 0.39 µg/mL (≈ 0.712 µM) |
| CO/N=C(\CN1CCN(c2cc3c(cc2F)c(=O)c(C(=O)O)cn3C2CC2)CC1)c1ccc(F)cc1F | 6.25 µg/mL (≈ 12.1 µM) | 0.78 µg/mL (≈ 1.52 µM) | 6.25 µg/mL (≈ 12.1 µM) | 1.56 µg/mL (≈ 3.03 µM) | 0.78 µg/mL (≈ 1.52 µM) | 12.5 µg/mL (≈ 24.3 µM) | – | – |
| CO/N=C(\CN1CCN(c2cc3c(cc2F)c(=O)c(C(=O)O)cn3C2CC2)CC1)c1ccc(F)cc1 | 6.25 µg/mL (≈ 12.6 µM) | 6.25 µg/mL (≈ 12.6 µM) | 6.25 µg/mL (≈ 12.6 µM) | 3.13 µg/mL (≈ 6.3 µM) | 3.13 µg/mL (≈ 6.3 µM) | 50 µg/mL (≈ 101 µM) | – | – |
| CO/N=C(\CN1CCN(c2cc3c(cc2F)c(=O)c(C(=O)O)cn3C2CC2)CC1)c1ccccc1 | 12.5 µg/mL (≈ 26.1 µM) | 6.25 µg/mL (≈ 13.1 µM) | 12.5 µg/mL (≈ 26.1 µM) | 6.25 µg/mL (≈ 13.1 µM) | 3.13 µg/mL (≈ 6.54 µM) | 100 µg/mL (≈ 209 µM) | – | – |
| CO/N=C(\CN1CCN(c2cc3c(cc2F)c(=O)c(C(=O)O)cn3C2CC2)CC1)c1ccccc1Cl | 0.39 µg/mL (≈ 0.76 µM) | 0.049 µg/mL (≈ 0.0955 µM) | 0.195 µg/mL (≈ 0.38 µM) | 0.025 µg/mL (≈ 0.0487 µM) | 0.013 µg/mL (≈ 0.0253 µM) | 6.25 µg/mL (≈ 12.2 µM) | 0.39 µg/mL (≈ 0.76 µM) | 0.39 µg/mL (≈ 0.76 µM) |
| CO/N=C(\CN1CCN(c2cc3c(cc2F)c(=O)c(C(=O)O)cn3C2CC2)CC1)c1ccc(Cl)cc1 | 0.78 µg/mL (≈ 1.52 µM) | 1.56 µg/mL (≈ 3.04 µM) | 0.39 µg/mL (≈ 0.76 µM) | 1.56 µg/mL (≈ 3.04 µM) | 0.78 µg/mL (≈ 1.52 µM) | > 100 µg/mL | 0.39 µg/mL (≈ 0.76 µM) | 0.39 µg/mL (≈ 0.76 µM) |
| O=C(O)c1cn(C2CC2)c2cc(N3CCN(C/C(=N\O)c4ccccc4Cl)CC3)c(F)cc2c1=O | 0.39 µg/mL (≈ 0.782 µM) | 0.78 µg/mL (≈ 1.56 µM) | 0.195 µg/mL (≈ 0.391 µM) | 0.78 µg/mL (≈ 1.56 µM) | 0.025 µg/mL (≈ 0.0501 µM) | 25 µg/mL (≈ 50.1 µM) | 0.39 µg/mL (≈ 0.782 µM) | 0.39 µg/mL (≈ 0.782 µM) |
| O=C(O)c1cn(C2CC2)c2cc(N3CCNCC3)c(F)cc2c1=O [CIPROFLOXACIN] | 0.39 µg/mL (≈ 1.18 µM) | 0.025 µg/mL (≈ 0.0754 µM) | 0.39 µg/mL (≈ 1.18 µM) | 0.025 µg/mL (≈ 0.0754 µM) | 0.025 µg/mL (≈ 0.0754 µM) | 0.78 µg/mL (≈ 2.35 µM) | 0.39 µg/mL (≈ 1.18 µM) | 0.39 µg/mL (≈ 1.18 µM) |
| CCn1cc(C(=O)O)c(=O)c2cc(F)c(N3CCNCC3)nc21 [ENOXACIN] | 1.56 µg/mL (≈ 4.87 µM) | 0.098 µg/mL (≈ 0.306 µM) | 0.78 µg/mL (≈ 2.44 µM) | 0.098 µg/mL (≈ 0.306 µM) | 0.098 µg/mL (≈ 0.306 µM) | 6.25 µg/mL (≈ 19.5 µM) | – | – |
| CCn1cc(C(=O)O)c(=O)c2cc(F)c(N3CCNCC3)cc21 [NORFLOXACIN] | 0.78 µg/mL (≈ 2.44 µM) | 0.049 µg/mL (≈ 0.153 µM) | 0.78 µg/mL (≈ 2.44 µM) | 0.049 µg/mL (≈ 0.153 µM) | 0.049 µg/mL (≈ 0.153 µM) | 3.13 µg/mL (≈ 9.8 µM) | 0.78 µg/mL (≈ 2.44 µM) | 0.78 µg/mL (≈ 2.44 µM) |
